target: human APJ receptor (Homo sapiens (Human), UniProt P35414); assay: [35S]GTPγS binding assay on membranes from CHO cells stably expressing human APJ receptor; format: biochemical; details: [35S]GTPγS SPA, read-out: Activity hAPJ SPA EC50 IP
Method in brief: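 Agonist-stimulated [35S]GTPγS binding measured on membranes of a stable human APJ CHO line, 90 min at room temperature, with GDP, MgCl2 and NaCl levels optimized beforehand. Means of independent runs fitted by non-linear regression to give EC50.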

Chain of human APJ receptor (P35414 whole entry): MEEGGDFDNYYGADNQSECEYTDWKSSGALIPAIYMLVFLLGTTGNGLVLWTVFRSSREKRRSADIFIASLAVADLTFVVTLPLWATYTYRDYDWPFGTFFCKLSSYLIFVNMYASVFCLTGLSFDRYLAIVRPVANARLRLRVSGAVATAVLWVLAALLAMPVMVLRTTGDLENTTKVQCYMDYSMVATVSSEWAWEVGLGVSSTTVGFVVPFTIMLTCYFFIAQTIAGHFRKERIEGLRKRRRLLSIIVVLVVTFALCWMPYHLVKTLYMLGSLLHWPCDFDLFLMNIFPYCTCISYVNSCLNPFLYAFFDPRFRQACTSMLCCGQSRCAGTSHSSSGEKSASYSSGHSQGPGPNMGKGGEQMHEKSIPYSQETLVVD

| Molecule | EC50 |
| --- | --- |
| COc1ncnc(OC)c1-n1c(NS(=O)(=O)[C@@H](C)[C@@H](OC(C)C)c2cnc(C)cn2)nnc1C1CCC1 [Example 86.0, (1S,2S)-N-(5-cyclobutyl-4-(4,6-dimethoxy-5-pyrimidinyl)-4H-1,2,4-triazol-3-yl)-1-(5-methyl-2-pyrazinyl)-1-(2-propanyloxy)-2-propanesulfonamide] | 36 nM |
| COc1cccc(OC)c1-n1c(NS(=O)(=O)[C@@H](C)[C@H](OCC(F)F)c2ncc(C)cn2)nnc1C1CCC1 [Example 209.0] | 18 nM |
| COc1cccc(OC)c1-n1c(NS(=O)(=O)[C@@H](C)[C@H](OC)c2ncc(Cl)cn2)nnc1[C@H]1C[C@@H](CO)C1 (single isomer, unassigned) [Example 123.0, (1R,2S)-1-(5-chloro-2-pyrimidinyl)-N-(4-(2,6-dimethoxyphenyl)-5-(cis-3-(hydroxymethyl)cyclobutyl)-4H-1,2,4-triazol-3-yl)-1-methoxy-2-propanesulfonamide or (1R,2S)-1-(5-chloro-2-pyrimidinyl)-N-(4-(2,6-dimethoxyphenyl)-5-(trans-3-(hydroxymethyl)cyclobutyl)-4H-1,2,4-triazol-3-yl)-1-methoxy-2-propanesulfonamide] | 5.1 nM |
| COc1ncnc(OC)c1-n1c(NS(=O)(=O)[C@@H](C)[C@H](OC)c2ncc(Cl)cn2)nnc1C1CC(OC)(OC)C1 [Example 238.0, (1R,25)-1-(5-chloro-2-pyrimidinyl)-N-(5-(3,3-dimethoxycyclobutyl)-4-(4,6-dimethoxy-5-pyrimidinyl)-4H-1,2,4-triazol-3-yl)-1-methoxy-2-propanesulfonamide] | 120 nM |
| COc1ncnc(OC)c1-n1c(NS(=O)(=O)[C@@H](C)[C@H](OC)c2ncc(Cl)cn2)nnc1[C@H]1CC1(F)F (single isomer, unassigned) [Example 100.0, (1R,2S)-1-(5-chloropyrimidin-2-yl)-N-(5-((R)-2,2-difluorocyclopropyl)-4-(4,6-dimethoxypyrimidin-5-yl)-4H-1,2,4-triazol-3-yl)-1-methoxypropane-2-sulfonamide or (1R,2S)-1-(5-chloropyrimidin-2-yl)-N-(5-((S)-2,2-difluorocyclopropyl)-4-(4,6-dimethoxypyrimidin-5-yl)-4H-1,2,4-triazol-3-yl)-1-methoxypropane-2-sulfonamide] | 140 nM |
| (1R,2S)-1-(5-chloropyrimidin-2-yl)-N-(4-(4,6-dimethoxypyrimidin-5-yl)-5-((R)-6-oxaspiro[2.5]octan-1-yl)-4H-1,2,4-triazol-3-yl)-1-methoxypropane-2-sulfonamide or (1R,2S)-1-(5-chloropyrimidin-2-yl)-N-(4-(4,6-dimethoxypyrimidin-5-yl)-5-((S)-6-oxaspiro[2.5]octan-1-yl)-4H-1,2,4-triazol-3-yl)-1-methoxypropane-2-sulfonamide [Example 102.0] | 160 nM |
| COc1cccc(OC)c1-n1c(NS(=O)(=O)[C@@H](C)[C@H](OC)c2ncc(Cl)cn2)nnc1C1CCCC1 [Example 241.0, (1R,25)-1-(5-chloro-2-pyrimidinyl)-N-(5-cyclopentyl-4-(2,6-dimethoxyphenyl)-4H-1,2,4-triazol-3-yl)-1-methoxy-2-propanesulfonamide] | 1.2 nM |
| COc1ncnc(OC)c1-n1c(NS(=O)(=O)[C@@H](C)[C@H](C)c2ncc(F)cn2)nnc1C1CCC1 [Example 84.0, (2S,3R)-N-(5-cyclobutyl-4-(4,6-dimethoxy-5-pyrimidinyl)-4H-1,2,4-triazol-3-yl)-3-(5-fluoro-2-pyrimidinyl)-2-butanesulfonamide] | 10.8 nM |
| COc1cccc(OC)c1-n1c(NS(=O)(=O)[C@@H](C)[C@@H](OC(C)C)c2ncc(C)cn2)nnc1[C@@H]1CCC(F)(F)C1 (mixture of isomers) [Example 232.0, (1S,2S)-N-(5-((1R)-3,3-difluorocyclopentyl)-4-(2,6-dimethoxyphenyl)-4H-1,2,4-triazol-3-yl)-1-(5-methyl-2-pyrimidinyl)-1-(2-propanyloxy)-2-propanesulfonamide and (1S,2S)-N-(5-((1S)-3,3-difluorocyclopentyl)-4-(2,6-dimethoxyphenyl)-4H-1,2,4-triazol-3-yl)-1-(5-methyl-2-pyrimidinyl)-1-(2-propanyloxy)-2-propanesulfonamide] | 42 nM |
| (2S,3R)-3-(5-chloropyrimidin-2-yl)-N-(4-(2,6-dimethoxyphenyl)-5-((S)-spiro[2.2]pentan-1-yl)-4H-1,2,4-triazol-3-yl)butane-2-sulfonamide or (2S,3R)-3-(5-chloropyrimidin-2-yl)-N-(4-(2,6-dimethoxyphenyl)-5-((R)-spiro[2.2]pentan-1-yl)-4H-1,2,4-triazol-3-yl)butane-2-sulfonamide [Example 219.0] | 29 nM |
| COc1cccc(OC)c1-n1c(NS(=O)(=O)[C@@H](C)[C@H](OC)c2ncc(Cl)cn2)nnc1[C@H]1C[C@H](OC)C1 (single isomer, unassigned) [Example 155.0, (1R,2S)-1-(5-chloropyrimidin-2-yl)-N-(4-(2,6-dimethoxyphenyl)-5-((1r,3S)-3-methoxycyclobutyl)-4H-1,2,4-triazol-3-yl)-1-methoxypropane-2-sulfonamide or (1R,2S)-1-(5-chloropyrimidin-2-yl)-N-(4-(2,6-dimethoxyphenyl)-5-((1s,3R)-3-methoxycyclobutyl)-4H-1,2,4-triazol-3-yl)-1-methoxypropane-2-sulfonamide] | 9.4 nM |
| COc1ncnc(OC)c1-n1c(NS(=O)(=O)[C@@H](C)[C@H](OC)c2ncc(Cl)cn2)nnc1[C@H]1C[C@@H](Cl)C1 (single isomer, unassigned) [Example 164.0, (1R,2S)-1-(5-chloropyrimidin-2-yl)-N-(4-(4,6-dimethoxypyrimidin-5-yl)-5-((1s,3R)-3-chlorocyclobutyl)-4H-1,2,4-triazol-3-yl)-1-methoxypropane-2-sulfonamide or (1R,2S)-1-(5-chloropyrimidin-2-yl)-N-(4-(4,6-dimethoxypyrimidin-5-yl)-5-((1r,3S)-3-chlorocyclobutyl)-4H-1,2,4-triazol-3-yl)-1-methoxypropane-2-sulfonamide] | 0.54 nM |
| COc1ncnc(OC)c1-n1c(NS(=O)(=O)[C@@H](C)[C@H](OC)c2ncc(Cl)cn2)nnc1[C@H]1CC[C@@H](C(F)(F)F)CC1 (single isomer, unassigned) [Example 172.0, (1R,2S)-1-(5-chloropyrimidin-2-yl)-N-(4-(4,6-dimethoxypyrimidin-5-yl)-5-((1s,4R)-4-(trifluoromethyl)cyclohexyl)-4H-1,2,4-triazol-3-yl)-1-methoxypropane-2-sulfonamide or (1R,2S)-1-(5-chloropyrimidin-2-yl)-N-(4-(4,6-dimethoxypyrimidin-5-yl)-5-((1r,4S)-4-(trifluoromethyl)cyclohexyl)-4H-1,2,4-triazol-3-yl)-1-methoxypropane-2-sulfonamide] | 370 nM |
| COc1ncnc(OC)c1-n1c(NS(=O)(=O)[C@@H](C)[C@H](OC)c2ncc(Cl)cn2)nnc1[C@H]1CC[C@H]1C(F)F (racemic) [Example 146.0] | 26 nM |
| COc1ncnc(OC)c1-n1c(NS(=O)(=O)[C@@H](C)[C@H](OC)c2ncc(Cl)cn2)nnc1C1CC(C)(C)C1 [Example 120.0] | 3.1 nM |
| COc1cccc(OC)c1-n1c(NS(=O)(=O)CCc2ncc(Cl)cn2)nnc1C1CCC1 [Example 210.0, 2-(5-chloro-2-pyrimidin-yl)-N-(5-cyclobutyl-4-(2,6-dimethoxyphenyl)-4H-1,2,4-triazol-3-yl)ethanesulfonamide] | 15 nM |
| COc1ncnc(OC)c1-n1c(NS(=O)(=O)[C@@H](C)[C@@H](OC(C)C)c2ncc(Cl)cn2)nnc1[C@@H]1CC[C@@H]1C(F)F (single isomer, unassigned) [Example 167.0, (1S,2S)-1-(5-chloropyrimidin-2-yl)-N-(5-((1R,2S)-2-(difluoromethyl)cyclobutyl)-4-(4,6-dimethoxypyrimidin-5-yl)-4H-1,2,4-triazol-3-yl)-1-isopropoxypropane-2-sulfonamide or (1S,2S)-1-(5-chloropyrimidin-2-yl)-N-(5-((1S,2R)-2-(difluoromethyl)cyclobutyl)-4-(2,6-dimethoxypyrimidin-5-yl)-4H-1,2,4-triazol-3-yl)-1-isopropoxypropane-2-sulfonamide] | 13 nM |
| (2S,3R)-3-(5-chloropyrimidin-2-yl)-N-(5-((R)-2,2-difluorocyclopropyl)-4-(2,6-dimethoxyphenyl)-4H-1,2,4-triazol-3-yl)butane-2-sulfonamide or (2S,3R)-3-(5-chloropyrimidin-2-yl)-N-(5-((S)-2,2-difluorocyclopropyl)-4-(2,6-dimethoxyphenyl)-4H-1,2,4-triazol-3-yl)butane-2-sulfonamide [Example 220.0] | 39 nM |
| COc1cccc(OC)c1-n1c(NS(=O)(=O)[C@@H](C)[C@H](OC)c2ncc(Cl)cn2)nnc1C12CC(C1)C2 [Example 217.0] | 7.4 nM |
| (1R,2S)-1-(5-chloropyrimidin-2-yl)-N-(4-(2,6-dimethoxyphenyl)-5-((S)-spiro[2.2]pentan-1-yl)-4H-1,2,4-triazol-3-yl)-1-methoxypropane-2-sulfonamide or (1R,2S)-1-(5-chloropyrimidin-2-yl)-N-(4-(2,6-dimethoxyphenyl)-5-((R)-spiro[2.2]pentan-1-yl)-4H-1,2,4-triazol-3-yl)-1-methoxypropane-2-sulfonamide [Example 222.0] | 24 nM |
| COc1cccc(OC)c1-n1c(NS(=O)(=O)[C@@H](C)[C@H](OC)c2ncc(Cl)cn2)nnc1[C@H]1C[C@@](C)(F)C1 (single isomer, unassigned) [Example 198.0, (1R,2S)-1-(5-chloropyrimidin-2-yl)-N-(4-(2,6-dimethoxyphenyl)-5-((1s,3R)-3-fluoro-3-methylcyclobutyl)-4H-1,2,4-triazol-3-yl)-1-methoxypropane-2-sulfonamide or ((1R,2S)-1-(5-chloropyrimidin-2-yl)-N-(4-(2,6-dimethoxyphenyl)-5-((1r,3S)-3-fluoro-3-methylcyclobutyl)-4H-1,2,4-triazol-3-yl)-1-methoxypropane-2-sulfonamide] | 3.7 nM |
